According to US7495027B2, “3-aryl-4-hydroxyfuranone compounds and the human and animal health use thereof” (Wyeth, priority 2003, dated 2009):

Tested on: C. elegans
Assay: Efficacy against nematodes (C. elegans motility rating)
Parameters: key: 0: no effect; 7: reduced movement in 24 h; 8: dead in 24 h; 9: dead in 4 h
Details: observations at 4 h and 24 h postimmersion
Procedure: Evaluation of the Efficacy of a 3-Aryl-4-Hydroxyfuranone Against Nematodes
In this evaluation, cultures of C. elegans are maintained on E. coli lawns on Nematode Growth Agar at 20° C. New cultures are established twice a week. Nematodes for testing are rinsed from plates using M9 Buffer. […] One μL of this solution is added to each well of a 96 well plate. A mixture of C. elegans in M9 Buffer (100 μL) is added to each well, such that approximately 50 worms of mixed stages (L1, L2, L3, L4 and adults) are present in each well at a final concentration of 100 ppm, 150 ppm or […] of test compound. Concentration of test compound may be varied by gradient dilution of the stock DMSO solution. Observations are made under a dissecting microscope at 4 h and 24 h postimmersion. A rating is based on the motility of the larvae and adults, using the rating system shown below.

Structure (SMILES)	Rating (dose 150 ppm)	Rating (dose 100 ppm)	also measured
O=C1O/C(=C\c2cccc(C(F)(F)F)c2)C(O)=C1c1cccc2ccccc12 [R=H; R1=1-naphthyl; R2=3-CF3—C6H4]	0	–	–
COc1ccc(C2=C(O)/C(=C/c3ccc(Cl)cc3)OC2=O)cc1 [R=H; R1=4-OCH3—C6H4; R2=4-Cl—C6H4]	0	–	–
O=C1OC(=Cc2ccc(C(F)(F)F)cc2)C(O)=C1c1ccc(Cl)cc1 (mixture of isomers) [R=H; R1=4-Cl—C6H4**; R2=4-CF3—C6H4]	–	9	–
O=C1OC(=Cc2cccc3ccccc23)C(O)=C1c1cccc(CO)c1 [R=H; R1=3-CH2OH—C6H4; R2=1-naphthyl]	0	–	–
N#Cc1cccc(C2=C(O)/C(=C/c3ccc(-c4cccc(C#N)c4)cc3)OC2=O)c1 [R=H; R1=3-CN—C6H4; R2=4-(3′-CN-biphenyl)]	0	–	–
COC1=C(c2ccccc2)C(=O)O/C1=C\c1cccc(C(F)(F)F)c1 [R=CH3; R1=C6H5; R2=3-CF3—C6H4]	0	–	–
O=C1OC(=Cc2ccc(-c3ccc(F)c(C(F)(F)F)c3)o2)C(O)=C1c1ccc(OC(F)(F)F)cc1 (mixture of isomers)	–	9	–
N#Cc1ccc(C=C2OC(=O)C(c3ccc(Cl)cc3)=C2O)cc1 (mixture of isomers) [R=H; R1=4-Cl—C6H4**; R2=4-CN—C6H4]	9	–	–
COc1cc(/C=C2\OC(=O)C(c3cc(Cl)cc(Cl)c3)=C2O)ccc1-c1ccccc1C(F)(F)F	0	–	–
O=C1OC(=Cc2ccncc2)C(O)=C1c1ccc(OC(F)(F)F)cc1 (mixture of isomers) [R=H; R1=4-OCF3—C6H4**; R2=pyridine-4-yl]	–	0	–
O=C1OC(=Cc2cccc(C(F)(F)F)c2)C(O)=C1c1ccc(-c2ccccc2)cc1 [R=H; R1=4-biphenyl; R2=3-CF3—C6H4]	–	–	Rating (dose 200 μM): 9
Cc1ccc(C)c(C2=C(O)/C(=C/c3cc(C(F)(F)F)ccc3Cl)OC2=O)c1	–	–	Rating (dose 200 μM): 0
N#Cc1ccc(/C=C2\OC(=O)C(c3ccc(Cl)s3)=C2O)cc1	–	9	–
N#Cc1ccc(C2=C(O)C(=Cc3ccc(Cl)cc3Cl)OC2=O)cc1 (mixture of isomers) [R=H; R1=4-CN—C6H4**; R2=2,4-diCl—C6H4]	–	9	–
O=C1O/C(=C\c2cccc(C(F)(F)F)c2)C(O)=C1c1ccccc1 [R=H; R1=C6H5; R2=3-CF3—C6H4]	0	–	–
O=C1OC(=Cc2cnccc2-c2ccc(Cl)cc2)C(O)=C1c1ccc(OC(F)(F)F)cc1 (mixture of isomers)	–	9	–
COc1ccccc1-c1ccc(C=C2OC(=O)C(c3cccc(Cl)c3)=C2O)cc1C	7	–	–
O=C1O/C(=C\c2ccc3ccccc3c2)C(O)=C1c1ccc(-c2ccccc2)cc1 [R=H; R1=4-biphenyl; R2=2-naphthyl]	0	–	–
O=C1OC(=Cc2ccc(Cl)c(Cl)c2)C(O)=C1c1ccc(Cl)s1	–	9	–
O=C1OC(=Cc2ccc(C(F)(F)F)cc2F)C(O)=C1c1ccc(OC(F)(F)F)cc1 (mixture of isomers) [R=H; R1=4-OCF3—C6H4**; R2=2-F-4-CF3—C6H3]	–	9	–
Cc1ccc(C2=C(O)C(=Cc3cccc(C(F)(F)F)c3Cl)OC2=O)cc1C	–	–	Rating (dose 200 μM): 9
COc1ccc(/C=C2\OC(=O)C(c3cc(Cl)cc(Cl)c3)=C2O)c2ccccc12	0	–	–
O=C1OC(=Cc2ccc(Cl)s2)C(O)=C1c1ccc(Cl)s1	–	9	–
Cc1ccccc1-n1ncc(C=C2OC(=O)C(c3ccc(OC(F)(F)F)cc3)=C2O)c1C (mixture of isomers)	–	0	–
N#Cc1ccc(C=C2OC(=O)C(c3cccs3)=C2O)cc1 [R=H; R1=thiophen-2-yl; R2=4-CN—C6H4]	–	0	–
O=C1OC(=Cc2cnccc2-c2cccc(Cl)c2)C(O)=C1c1ccc(OC(F)(F)F)cc1 (mixture of isomers)	–	9	–
O=C1O/C(=C\c2ccc(N3CCOCC3)c3ccccc23)C(O)=C1c1cccc(Cl)c1	0	–	–

Structure (SMILES)	Rating (dose 150 ppm)	Rating (dose 100 ppm)	also measured
O=C1O/C(=C\c2ccc(Cl)cc2)C(O)=C1c1cccc2ccccc12 [R=H; R1=1-naphthyl; R2=4-Cl—C6H4]	0	–	–
COc1ccc(/C=C2\OC(=O)C(c3cccc(Cl)c3)=C2O)c2ccccc12	9	–	–
Cc1nc(C=C2OC(=O)C(c3ccc(OC(F)(F)F)cc3)=C2O)c[nH]1 (mixture of isomers)	–	0	–
N#Cc1ccc(C2=C(O)C(=Cc3ccc(Cl)cc3)OC2=O)cc1 [R=H; R1=4-CN—C6H4**; R2=4-Cl—C6H4]	9	–	–
O=C1OC(=Cc2ccccc2OCc2ccccc2)C(O)=C1c1cc(Cl)cc(Cl)c1	0	–	–
COc1cc(/C=C2\OC(=O)C(c3cccc(Cl)c3)=C2O)ccc1-c1ccccc1C(F)(F)F	9	–	–
COc1ccc(/C=C2\OC(=O)C(c3ccc(OC)cc3)=C2O)cc1 [R=H; R1=4-OCH3—C6H4; R2=4-OCH3—C6H4]	0	–	–
N#Cc1ccc(C2=C(O)C(=Cc3ccc(-c4ccc(C#N)cc4)cc3)OC2=O)cc1 [R=H; R1=4-CN—C6H4; R2=4-(4′-CN-biphenyl)]	8	–	–
COC1=C(c2ccc(Cl)cc2)C(=O)O/C1=C\c1ccccc1 [R=CH3; R1=4-Cl—C6H4; R2=C6H5]	0	–	–
Cc1ccc(C2=C(O)/C(=C/c3cc(C(F)(F)F)ccc3Cl)OC2=O)cc1C	–	–	Rating (dose 200 μM): 0
O=C1OC(=Cc2ccc(SC(F)(F)F)cc2)C(O)=C1c1ccc(Cl)cc1 (mixture of isomers) [R=H; R1=4-Cl—C6H4**; R2=4-SCF3—C6H4]	–	9	–
O=C1OC(=Cc2c[nH]c(-c3ccccc3)n2)C(O)=C1c1ccc(OC(F)(F)F)cc1 (mixture of isomers)	–	0	–
O=C1OC(=Cc2cc(C(F)(F)F)ccc2Cl)C(O)=C1c1ccc(-c2ccccc2)cc1 [R=H; R1=4-biphenyl; R2=2-Cl-5-CF3—C6H3]	–	–	Rating (dose 200 μM): 9
O=C1O/C(=C\c2ccc(F)c(C(F)(F)F)c2)C(O)=C1c1ccc(Cl)s1	–	9	–
N#Cc1ccc(C2=C(O)C(=Cc3ccc(Cl)c(Cl)c3)OC2=O)cc1 (mixture of isomers) [R=H; R1=4-CN—C6H4**; R2=3,4-diCl—C6H4]	–	9	–
O=C1O/C(=C\c2ccc(Cl)cc2)C(O)=C1c1ccc(Cl)s1	–	9	–
O=C1O/C(=C\c2ccc(F)cc2)C(O)=C1c1ccc(Cl)s1	–	9	–
N#Cc1ccc(/C=C2\OC(=O)C(c3ccc(C#N)cc3)=C2O)cc1 [R=H; R1=4-CN—C6H4**; R2=4-CN—C6H4]	9	–	–
O=C1O/C(=C\c2cccc3ccccc23)C(O)=C1c1cccc2ccccc12 [R=H; R1=1-naphthyl; R2=1-naphthyl]	0	–	–
O=C1O/C(=C\c2ccc(F)c(F)c2)C(O)=C1c1ccc(Cl)s1	–	9	–
N#Cc1ccc(C2=C(O)C(=Cc3ccc(-c4ccc(C(F)(F)F)cc4)cc3)OC2=O)cc1 (mixture of isomers)	–	9	–
CC(=O)c1ccc(C2=C(O)C(=Cc3ccccc3C(F)(F)F)OC2=O)cc1 [R=H; R1=4-COCH3—C6H4; R2=2-CF3—C6H4]	0	–	–
Cc1cc(/C=C2\OC(=O)C(c3cc(Cl)cc(Cl)c3)=C2O)ccc1-c1ccccc1Cl	7	–	–
CCc1ccc(C2=C(O)/C(=C/c3cc(C(F)(F)F)ccc3Cl)OC2=O)cc1	–	–	Rating (dose 200 μM): 9
Cc1nn(C)c(Cl)c1C=C1OC(=O)C(c2ccc(OC(F)(F)F)cc2)=C1O (mixture of isomers)	–	0	–
O=C1O/C(=C\c2ccccc2-c2cccc(Cl)c2)C(O)=C1c1cccc(Cl)c1 [R=H; R1=3-Cl—C6H4; R2=2-(3′-Cl-biphenyl)]	0	–	–
CCCCc1ccc(-c2ccc(C3=C(O)C(=Cc4cccc(C(F)(F)F)c4Cl)OC3=O)cc2)cc1	–	–	Rating (dose 200 μM): 9
